Reference: ChEMBL document CHEMBL1914287, “Synthesis and in vivo evaluation of [18F]N-(2-benzofuranylmethyl)-N'-[4-(2-fluoroethoxy)benzyl]piperazine, a novel σ1 receptor PET imaging agent” (Bioorg Med Chem Lett, 2011)

Key:
Rhesus monkey [1] = assay: Inhibition of sigma 1 receptor in conscious monkey brain at 220 to 802 MBq, iv; format: functional, organism-based; conditions: Macaca mulatta
Rhesus monkey [2] = assay: Inhibition of sigma 2 receptor in conscious monkey brain at 220 to 802 MBq, iv; format: functional, organism-based; conditions: Macaca mulatta
[3] = biological target: T1, Sigma non-opioid intracellular receptor 1 (Homo sapiens, UniProt Q99720); assay: Binding affinity to sigma 1 receptor by radioligand displacement assay
[4] = Binding affinity to sigma 2 receptor by radioligand displacement assay
[5] = biological target: T1, Sigma non-opioid intracellular receptor 1; assay: Binding affinity to sigma 1 receptor
[6] = Binding affinity to sigma 2 receptor
[7] = biological target: Sigma non-opioid intracellular receptor 1 (Cavia porcellus, UniProt Q60492); assay: Binding affinity to sigma 1 receptor in guinea pig brain membrane; format: cell membranes
[8] = Binding affinity to sigma 2 receptor in guinea pig brain membrane; format: cell membranes, Cavia porcellus
[9] = Drug uptake in cerebellum of baboon brain at 100 MBq, iv measured within 5 mins by microPET imaging; format: ADME, organism-based; conditions: papio hamadryas, in vivo
[10] = Drug uptake in cortex of baboon brain at 100 MBq, iv measured within 5 mins by microPET imaging; format: ADME, organism-based; conditions: papio hamadryas, in vivo
[11] = Drug uptake in right striatum of baboon brain at 100 MBq, iv measured within 5 mins by microPET imaging; format: ADME, organism-based; conditions: papio hamadryas, in vivo
[12] = Drug uptake in left striatum of baboon brain at 100 MBq, iv measured within 5 mins by microPET imaging; format: ADME, organism-based; conditions: papio hamadryas, in vivo
[13] = Drug uptake in thalamus of baboon brain at 100 MBq, iv measured within 5 mins by microPET imaging; format: ADME, organism-based; conditions: papio hamadryas, in vivo
[14] = Drug uptake in cerebellum of baboon brain at 100 MBq, iv measured after 60 mins by microPET imaging; format: ADME, organism-based; conditions: papio hamadryas, in vivo, 1 h
[15] = Drug uptake in cortex of baboon brain at 100 MBq, iv measured after 60 mins by microPET imaging; format: ADME, organism-based; conditions: papio hamadryas, in vivo, 1 h
[16] = Drug uptake in right striatum of baboon brain at 100 MBq, iv measured after 60 mins by microPET imaging; format: ADME, organism-based; conditions: papio hamadryas, in vivo, 1 h
[17] = Drug uptake in left striatum of baboon brain at 100 MBq, iv measured after 60 mins by microPET imaging; format: ADME, organism-based; conditions: papio hamadryas, in vivo, 1 h
[18] = Drug uptake in thalamus of baboon brain at 100 MBq, iv measured after 60 mins by microPET imaging; format: ADME, organism-based; conditions: papio hamadryas, in vivo, 1 h
[19] = Drug uptake in cerebellum of baboon brain at 100 MBq, iv administered 5 mins after haloperidol challenge measured within 3 mins by microPET imaging; format: ADME, organism-based; conditions: papio hamadryas, in vivo
[20] = Drug uptake in cerebellum of baboon brain at 100 MBq, iv administered 5 mins after haloperidol challenge measured within 5 mins by microPET imaging; format: ADME, organism-based; conditions: papio hamadryas, in vivo
[21] = Drug uptake in cerebellum of baboon brain at 100 MBq, iv administered 5 mins after haloperidol challenge measured after 60 mins by microPET imaging; format: ADME, organism-based; conditions: papio hamadryas, in vivo, 1 h
[22] = Drug uptake in cortex of baboon brain at 100 MBq, iv administered 5 mins after haloperidol challenge measured within 3 mins by microPET imaging; format: ADME, organism-based; conditions: papio hamadryas, in vivo
[23] = Drug uptake in cortex of baboon brain at 100 MBq, iv administered 5 mins after haloperidol challenge measured within 5 mins by microPET imaging; format: ADME, organism-based; conditions: papio hamadryas, in vivo
[24] = Drug uptake in cortex of baboon brain at 100 MBq, iv administered 5 mins after haloperidol challenge measured after 60 mins by microPET imaging; format: ADME, organism-based; conditions: papio hamadryas, in vivo, 1 h
[25] = Drug uptake in right striatum of baboon brain at 100 MBq, iv administered 5 mins after haloperidol challenge measured within 3 mins by microPET imaging; format: ADME, organism-based; conditions: papio hamadryas, in vivo
[26] = Drug uptake in right striatum of baboon brain at 100 MBq, iv administered 5 mins after haloperidol challenge measured within 5 mins by microPET imaging; format: ADME, organism-based; conditions: papio hamadryas, in vivo
[27] = Drug uptake in right striatum of baboon brain at 100 MBq, iv administered 5 mins after haloperidol challenge measured after 60 mins by microPET imaging; format: ADME, organism-based; conditions: papio hamadryas, in vivo, 1 h
[28] = Drug uptake in left striatum of baboon brain at 100 MBq, iv administered 5 mins after haloperidol challenge measured within 3 mins by microPET imaging; format: ADME, organism-based; conditions: papio hamadryas, in vivo
[29] = Drug uptake in left striatum of baboon brain at 100 MBq, iv administered 5 mins after haloperidol challenge measured within 5 mins by microPET imaging; format: ADME, organism-based; conditions: papio hamadryas, in vivo
[30] = Drug uptake in left striatum of baboon brain at 100 MBq, iv administered 5 mins after haloperidol challenge measured after 60 mins by microPET imaging; format: ADME, organism-based; conditions: papio hamadryas, in vivo, 1 h
[31] = Drug uptake in thalamus of baboon brain at 100 MBq, iv administered 5 mins after haloperidol challenge measured within 3 mins by microPET imaging; format: ADME, organism-based; conditions: papio hamadryas, in vivo
[32] = Drug uptake in thalamus of baboon brain at 100 MBq, iv administered 5 mins after haloperidol challenge measured within 5 mins by microPET imaging; format: ADME, organism-based; conditions: papio hamadryas, in vivo
[33] = Drug uptake in thalamus of baboon brain at 100 MBq, iv administered 5 mins after haloperidol challenge measured after 60 mins by microPET imaging; format: ADME, organism-based; conditions: papio hamadryas, in vivo, 1 h

T1 sequence (Q99720 whole entry): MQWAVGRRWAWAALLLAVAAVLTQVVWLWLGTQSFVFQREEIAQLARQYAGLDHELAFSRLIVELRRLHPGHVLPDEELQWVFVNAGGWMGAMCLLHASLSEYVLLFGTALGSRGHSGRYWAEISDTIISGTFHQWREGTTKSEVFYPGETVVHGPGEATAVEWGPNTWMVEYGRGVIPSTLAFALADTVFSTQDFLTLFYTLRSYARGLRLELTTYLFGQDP
Sequence of Sigma non-opioid intracellular receptor 1 (Cavia porcellus, UniProt Q60492) (Q60492 whole entry): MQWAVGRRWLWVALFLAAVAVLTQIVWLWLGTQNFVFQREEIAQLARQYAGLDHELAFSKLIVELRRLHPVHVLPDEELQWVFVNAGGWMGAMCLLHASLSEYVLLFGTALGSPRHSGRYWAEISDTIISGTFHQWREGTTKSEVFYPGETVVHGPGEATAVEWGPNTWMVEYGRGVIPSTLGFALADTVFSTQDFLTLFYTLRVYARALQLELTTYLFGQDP

What does the source list for `COc1cc(CCN2CCN(CCCc3ccc(F)cc3)CC2)ccc1OCCF`?
IC50 (Rhesus monkey [1]): 3.1 nM; IC50 (Rhesus monkey [2]): 6.8 nM

Which results are given for `FCCC1OC2(CCN(Cc3ccccc3)CC2)c2ccccc21` (stereo not drawn)?
Ki [3]: 0.59 nM; Ki [4]: 785 nM

With `N#Cc1ccc(OCC2CCN(CCCF)CC2)cc1` as the compound, how does the Ki [5] read?
The Ki was 4.3 nM.

What about the Ki [6] of the same compound?
Its Ki is 144 nM.

Which Ki [7] does the source give for `O=C(NC1CCN(Cc2ccccc2)CC1)c1ccccc1F` here?
The Ki was 3.39 nM.

What about the Ki [8] of the same compound?
The Ki was 406 nM.

Which Drug uptake [9] does the source give for `[18F]CCOc1ccc(CN2CCN(Cc3cc4ccccc4o3)CC2)cc1` here?
Its Drug uptake is “Active”.

And the Drug uptake [10]?
The Drug uptake was “Active”.

What about the Drug uptake [11] of the same compound?
The Drug uptake was “Active”.

What about the Drug uptake [12] of the same compound?
Its Drug uptake is “Active”.

What about the Drug uptake [13] of the same compound?
Its Drug uptake is “Active”.

And the Drug uptake [14]?
Its Drug uptake is “Active”.

What about the Drug uptake [15] of the same compound?
The Drug uptake was “Active”.

And the Drug uptake [16]?
The Drug uptake was “Active”.

What about the Drug uptake [17] of the same compound?
The Drug uptake was “Active”.

And the Drug uptake [18]?
Its Drug uptake is “Active”.

What about the Drug uptake [19] of the same compound?
Its Drug uptake is “Active”.

And the Drug uptake [20]?
The Drug uptake was “Not Active”.

And the Drug uptake [21]?
The Drug uptake was “Not Active”.

What about the Drug uptake [22] of the same compound?
The Drug uptake was “Active”.

What about the Drug uptake [23] of the same compound?
Its Drug uptake is “Not Active”.

And the Drug uptake [24]?
The Drug uptake was “Not Active”.

And the Drug uptake [25]?
The Drug uptake was “Active”.

And the Drug uptake [26]?
Its Drug uptake is “Not Active”.

And the Drug uptake [27]?
Its Drug uptake is “Not Active”.

And the Drug uptake [28]?
The Drug uptake was “Active”.

What about the Drug uptake [29] of the same compound?
The Drug uptake was “Not Active”.

What about the Drug uptake [30] of the same compound?
Its Drug uptake is “Not Active”.

What about the Drug uptake [31] of the same compound?
Its Drug uptake is “Active”.

What about the Drug uptake [32] of the same compound?
Its Drug uptake is “Not Active”.

And the Drug uptake [33]?
Its Drug uptake is “Not Active”.
